Measured values as given in patent publication US11613531B2, “Inhibitors of RHO associated coiled-coil containing protein kinase” (Kadmon Corporation, LLC, priority 2017, dated 2023).

How the values were obtained:
[1] = tested on: ppMlc (T18/S19) levels in A7R5 cells; assay: A7R5 in-cell ELISA (pMLC); assay type: cell-based, Rat; settings: Rattus norvegicus, A7R5, A7R5 cells; for inhibition at 10 µM: 10 μM compound; for inhibition at 10 µM / inhibition at 1 µM: read-out: pMLC % inh A7R5 @ [conc]; for IC50: ppMlc (T18/S19); for inhibition at 1 µM: 1 μM compound
Procedure: Determination of Compounds ROCK Inhibitory Activity in A7R5Cells.
Rat aortic smooth muscle cell line, A7R5, cells were seeded with density of 5,000 cells/well in a 96-well plates for 24 hours and subsequently treated for 90 min with testing compounds. Cells were then fixed and processed according to the In-Cell ELISA Colorimetric Detection Kit manual (Thermo Scientific).
An A7R5 in-cell Elisa assay was performed. A7R5 cells were treated with 9 points 2 fold serial dilution of compounds and ppMlc (T18/S19) levels were determined to calculate cellular IC50 values of the compounds. Compounds of the invention gave in cell IC50s under 100 nM.
(§1) In vitro activities for the compounds were measured with Z′-lyte kinase kit (ThermoFisher Scientific). The percent inhibition rate was calculated by normalizing the kinase activity value obtained with 1 μM compound treatment against DMSO control value and then applied to the formula, [1-(compound/DMSO)]×100%. IC50s were calculated using the nonlinear regression curve fit function of the GraphPad Prism software with kinase activities data measured with 9 points 2-fold serial dilution of compounds treatment. In cell pMLC IC50s were calculated with data obtained from A7R5 cell experiments. A7R5 cells were treated with 9 points 2-fold serial dilution of compounds and ppMlc (T18/S19) levels were determined to calculate cellular IC50 values of the compounds using the nonlinear regression curve fit function of the GraphPad Prism software. NIH3T3 cells stably expressing ACTA2-promoter-driven-luciferase were applied to measure ROCK compounds functional IC50s in cells. Cells were plated in 96 well plates to confluence and treated with 9 points serial dilution of compounds in combination with TGFβ1 for 24 hr. Luciferase activities were measured and compound's IC50s were calculated using the nonlinear regression curve fit function of the GraphPad Prism software.

[2] = biological target: Recombinant ROCK2 (amino acids 1-552) (Homo sapiens (Human), UniProt O75116); assay: Z′-Lyte kinase assay, ROCK2; assay type: biochemical; settings: for inhibition at 1 µM: 1 μM compound; for inhibition at 1 µM / inhibition at 0.5 µM: read-out: ROCK2 % inh. @ [conc]; for inhibition at 0.5 µM: 0.5 μM compound
Sequence of Recombinant ROCK2 (amino acids 1-552) (O75116 1-552): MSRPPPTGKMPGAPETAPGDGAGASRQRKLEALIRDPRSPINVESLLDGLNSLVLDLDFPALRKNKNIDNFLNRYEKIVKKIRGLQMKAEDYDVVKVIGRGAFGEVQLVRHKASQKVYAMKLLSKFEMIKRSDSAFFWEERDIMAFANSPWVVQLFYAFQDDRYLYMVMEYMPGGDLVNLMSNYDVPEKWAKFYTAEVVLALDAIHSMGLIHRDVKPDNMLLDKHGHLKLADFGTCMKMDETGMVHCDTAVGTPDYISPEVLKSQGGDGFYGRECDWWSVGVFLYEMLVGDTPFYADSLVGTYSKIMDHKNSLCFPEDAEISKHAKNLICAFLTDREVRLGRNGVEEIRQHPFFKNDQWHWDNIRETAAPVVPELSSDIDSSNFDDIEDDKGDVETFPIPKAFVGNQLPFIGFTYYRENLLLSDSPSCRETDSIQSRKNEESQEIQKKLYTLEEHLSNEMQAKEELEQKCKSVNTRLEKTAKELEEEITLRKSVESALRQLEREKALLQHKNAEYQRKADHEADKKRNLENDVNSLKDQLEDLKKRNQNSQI
Procedure: Determination of Compound's ROCK Inhibitory Activity In Vitro (Z'Lyte Assay).
Recombinant ROCK1 (amino acids 1-535) and ROCK2 (amino acids 1-552) proteins were purchased from ThermoFisher Scientific. Compound's activities were measured by Z′-lyte kinase kit (ThermoFisher Scientific) and IC50 was calculated
as §1

SMILES | inhibition at 10 µM [1] [%] | IC50 [2] [µM] | also measured
Nc1ncc(-c2ccc(Nc3ccnc(N4CCNCC4)n3)cc2)s1 [Example 361, 5-(4-((2-(piperazin-1-yl)pyrimidin-4-yl)amino)phenyl)thiazol-2-amine] | 2.02 | > 10 | –
CCC1CN(c2ncc(Cl)c(Nc3ccc4[nH]ncc4c3)n2)CCCN1 (centres unmarked) [Example 186, N-(5-chloro-2-(3-ethyl 4-diazepan-1-yl)pyrimidin-4-yl)-1H-indazol-5-amine] | 47.7 | – | inhibition at 1 µM [2]: 47.8%
COc1cnc(N2CCCNC(C(C)C)C2)nc1Nc1ccc2[nH]ncc2c1 (centres unmarked) [Example 32, N-(2-(3-isopropyl-1,4-diazepan-1-yl)-5-methoxypyrimidin-4-yl)-1H-indazol-5-amine] | 53.7 | – | IC50 [1]: 3950 nM; inhibition at 1 µM [2]: 44.6%
CC1CCN(c2ncc(F)c(Nc3ccc4[nH]ncc4c3)n2)CCN1 (centres unmarked) [Example 152, N-(5-fluoro-2-(5-methyl-1,4-diazepan-1-yl)pyrimidin-4-yl)-1H-indazol-5-amine] | 50.7 | – | IC50 [1]: 1030 nM; inhibition at 1 µM [2]: 77%
c1cc(-c2ccc(Nc3nc(N4C5CNCC4C5)nc4c3COC4)cc2)ccn1 [Example 312, 2-(3,6-diazabicyclo[3.1.1]heptan-6-yl)-N-(4-(pyridin-4-yl)phenyl)-5,7-dihydrofuro[3,4-d]pyrimidin-4-amine] | – | > 1 | –
c1cc(Nc2cnc3[nH]ccc3c2)nc(N2CCCNCC2)n1 [Example 370, N-(2-(1,4-diazepan-1-yl)pyrimidin-4-yl)-1H-pyrrolo[2,3-b]pyridin-5-amine] | 5.8 | 6.27 | –
Cc1nc(N2CCNCC(C)C2)nc(Nc2ccc3[nH]ncc3c2)c1C (centres unmarked) [Example 28, N-(5,6-dimethyl-2-(6-methyl-1,4-diazepan-1-yl)pyrimidin-4-yl)-1H-indazol-5-amine] | – | – | inhibition at 1 µM [1]: 11.8%; inhibition at 1 µM [2]: 45%
c1cc(Nc2ccc(-c3cn[nH]c3)cc2)nc(N2CCNCC2)n1 [Example 38, N-(4-(1H-pyrazol-4-yl)phenyl)-2-(piperazin-1-yl)pyrimidin-4-amine] | – | 0.451 | inhibition at 1 µM [1]: 9.2%; inhibition at 1 µM [2]: 63.1%
CC1CN(c2ncc(F)c(Nc3ccc4[nH]ncc4c3)n2)CCN1 (centres unmarked) [Example 140, N-(5-fluoro-2-(3-methylpiperazin-1-yl)pyrimidin-4-yl)-1H-indazol-5-amine] | 63.5 | – | IC50 [1]: 734 nM; inhibition at 1 µM [2]: 88%
CC1CN(c2ncc(F)c(Nc3ccc4[nH]ncc4c3)n2)CC(C)N1 (centres unmarked) [Example 150, N-(2-(3,5-dimethylpiperazin-1-yl)-5-fluoropyrimidin-4-yl)-1H-indazol-5-amine] | 44.4 | – | IC50 [1]: 4970 nM; inhibition at 1 µM [2]: 43.2%
Cc1cc2[nH]ncc2cc1Nc1nc(N2C3CCC2CNC3)ncc1Cl [Example 318, N-(2-(3,8-diazabicyclo[3.2.1]octan-8-yl)-5-chloropyrimidin-4-yl)-6-methyl-1H-indazol-5-amine] | – | – | inhibition at 0.5 µM [2]: 50%
Fc1cnc(N2CC(C3CCNCC3)c3ccccc32)nc1Nc1ccc2[nH]ncc2c1 (centres unmarked) [Example 175, N-(5-fluoro-2-(3-(piperidin-4-yl)indolin-1-yl)pyrimidin-4-yl)-1H-indazol-5-amine] | – | – | inhibition at 1 µM [2]: 10.5%
Cc1c(Nc2nc(N3C4CCC3CNC4)ncc2Cl)ccc2[nH]ncc12 [Example 294, N-(2-(3,8-diazabicyclo[3.2.1]octan-8-yl)-5-chloropyrimidin-4-yl)-4-methyl-1H-indazol-5-amine] | – | – | inhibition at 0.5 µM [2]: 0%
Cc1c(Nc2nc(N3C4CNCC3C4)ncc2Cl)ccc2[nH]ncc12 [Example 293, N-(2-(3,6-diazabicyclo[3.1.1]heptan-6-yl)-5-chloropyrimidin-4-yl)-4-methyl-1H-indazol-5-amine] | – | – | inhibition at 0.5 µM [2]: 1%
c1ccc2c(Nc3ccc4[nH]ncc4c3)nc(N3C4CCC3CNC4)nc2c1 [Example 330, 2-(3,8-diazabicyclo[3.2.1]octan-8-yl)-N-(1H-indazol-5-yl)quinazolin-4-amine] | – | 0.011 | –
Clc1cnc(N2CC3CNCC(C2)O3)nc1Nc1ccc2[nH]ncc2c1 [Example 325, N-(2-((1,5)-9-oxa-3,7-diazabicyclo[3.3.1]nonan-3-yl)-5-chloropyrimidin-4-yl)-1H-indazol-5-amine] | – | – | inhibition at 0.5 µM [2]: 25%
c1cc(-c2ccc(Nc3nc(N4C5CNCC4C5)nc4c3CNC4)cc2)ccn1 [Example 292, 2-(3,6-diazabicyclo[3.1.1]heptan-6-yl)-N-(4-(pyridin-4-yl)phenyl)-6,7-dihydro-5H-pyrrolo[3,4-d]pyrimidin-4-amine] | – | – | inhibition at 0.5 µM [2]: 10%

SMILES | inhibition at 10 µM [1] [%] | IC50 [2] [µM] | also measured
OC1CC2CCC(C1)N2c1nccc(Nc2ccc3[nH]ncc3c2)n1 (centres unmarked) [Example 223, 8-(4-((1H-indazol-5-yl)amino)pyrimidin-2-yl)-8-azabicyclo[3.2.1]octan-3-ol] | – | 0.0158 | –
CN(C)C1CC2CC1CN2c1ncc(F)c(Nc2ccc3[nH]ncc3c2)n1 (centres unmarked) [Example 335, N-(2-(5-(dimethylamino)-2-azabicyclo[2.2.1]heptan-2-yl)-5-fluoropyrimidin-4-yl)-1H-indazol-5-amine] | – | > 1 | –
c1cc(Nc2ccc3[nH]ncc3c2)nc(N2CCOCC2)n1 [Example 33, N-(2-morpholinopyrimidin-4-yl)-1H-indazol-5-amine] | – | > 10 | –
CC1CNCCN1c1nccc(Nc2ccc(-c3cn[nH]c3)cc2)n1 (centres unmarked) [Example 253, N-(4-(1H-pyrazol-4-yl)phenyl)-2-(2-methylpiperazin-1-yl)pyrimidin-4-amine] | 41.5 | – | –
Cc1cc(Nc2ccc3[nH]ncc3c2)nc(N2CCCC3(CCNC3)C2)n1 (centres unmarked) [Example 125, N-(6-methyl-2-(2,7-diazaspiro[4.5]decan-7-yl)pyrimidin-4-yl)-1H-indazol-5-amine] | – | – | inhibition at 1 µM [1]: 0.7%
c1ccc(CC2CCNCCN2c2nc3c(c(Nc4ccc5[nH]ncc5c4)n2)COC3)cc1 (centres unmarked) [Example 236, 2-(7-benzyl-1,4-diazepan-1-yl)-N-(1H-indazol-5-yl)-5,7-dihydrofuro[3,4-d]pyrimidin-4-amine] | 80.8 | – | IC50 [1]: 4690 nM
Cc1cnc(N2CCCNC(C(C)C)C2)nc1Nc1ccc2[nH]ncc2c1 (centres unmarked) [Example 92, N-(2-(3-isopropyl-1,4-diazepan-1-yl)-5-methylpyrimidin-4-yl)-1H-indazol-5-amine] | 19.6 | – | –
Cc1nc(N2CCCNCC2)nc(Nc2ccc(-c3cn[nH]c3)cc2)c1C [Example 266, N-(4-(1H-pyrazol-4-yl)phenyl)-2-(1,4-diazepan-1-yl)-5,6-dimethylpyrimidin-4-amine] | 74 | – | IC50 [1]: 3150 nM
CC(C)C1CCN(c2ncc(F)c(Nc3ccc4[nH]ncc4c3)n2)CCN1 (centres unmarked) [Example 145, N-(5-fluoro-2-(5-isopropyl-1,4-diazepan-1-yl)pyrimidin-4-yl)-1H-indazol-5-amine] | 42.4 | – | –
CN(C)C1CC2CCC(C1)N2c1nccc(Nc2ccc3[nH]ncc3c2)n1 (centres unmarked) [Example 337, N-(2-(3-(dimethylamino)-8-azabicyclo[3.2.1]octan-8-yl)pyrimidin-4-yl)-1H-indazol-5-amine] | – | > 1 | –
Cc1cnc(N2CCNC(C(C)C)CC2)nc1Nc1ccc2[nH]ncc2c1 (centres unmarked) [Example 93, N-(2-(5-isopropyl-1,4-diazepan-1-yl)-5-methylpyrimidin-4-yl)-1H-indazol-5-amine] | 21.1 | – | –
c1cc(-c2ccc(Nc3nc(N4C5CNCC4C5)nc4c3COCC4)cc2)ccn1 [Example 311, 2-(3,6-diazabicyclo[3.1.1]heptan-6-yl)-N-(4-(pyridin-4-yl)phenyl)-7,8-dihydro-5H-pyrano[4,3-d]pyrimidin-4-amine] | – | > 1 | –
c1cc(Nc2ccnc(N3CCNCC3)n2)cc(-c2ccncc2)c1 [Example 345, 2-(piperazin-1-yl)-N-(3-(pyridin-4-yl)phenyl)pyrimidin-4-amine] | 23.7 | – | –
Cc1cc(Nc2ccc3[nH]ncc3c2)nc(N2CC3(CNC3)C2)n1 [Example 128, N-(6-methyl-2-(2,6-diazaspiro[3.3]heptan-2-yl)pyrimidin-4-yl)-1H-indazol-5-amine] | – | – | inhibition at 1 µM [1]: -8.3%
CC1CN(c2nccc(Nc3ccc(-c4cn[nH]c4)cc3)n2)CCN1 (centres unmarked) [Example 252, N-(4-(1H-pyrazol-4-yl)phenyl)-2-(3-methylpiperazin-1-yl)pyrimidin-4-amine] | 65 | – | IC50 [1]: 1170 nM
Cc1cnc(N2CCNC(c3ccccc3)CC2)nc1Nc1ccc2[nH]ncc2c1 (centres unmarked) [Example 94, N-(5-methyl-2-(5-phenyl-1,4-diazepan-1-yl)pyrimidin-4-yl)-1H-indazol-5-amine] | 19.2 | – | –
